Legend:
Caco-2 cells = experiment: Transepithelial transport of berberine and berbamine across Caco-2 cells; type: in vitro ADME, human; settings: 100 µM; Caco-2 cells
Procedure: Transport of ^3H-CsA and ^3H-digoxin (0.5 µM and 1.0 µCi), MDR1 substrates, were performed using transport buffer consisting of HBSS with 10 mM HEPES and 25 mM D-glucose at a pH of 6.8 for the apical (A) compartment and 7.4 for the basolateral (B) compartment. Experiments were performed at 37°C, 5% CO2, and 95% relative humidity. Cells in the Transwell® inserts were washed 3 times with a transport buffer and allowed to equilibrate for 30 min prior to the addition of test compounds. […] To evaluate the efflux mechanism involved with berberine and berbamine, 100 µM of berberine and berbamine were placed in the donor chamber and 100 µL samples were collected in the receiver chamber at 0, 0.5, 1.0, 1.5, 2.0, 2.5, and 3.0 h and analyzed by HPLC. Each experiment was performed in duplicate and repeated for each condition tested. For experiments performed in “non-sink” conditions, 100 µL aliquots were taken from the donor and receiver chambers at the beginning and from the receiver chamber at 0.5, 1.0, 1.5, 2.0, 2.5, and 3.0 h. An equal volume of 100 µL was replaced in the chamber at each sample time point. “Non-sink” conditions were performed when less than 10% of compound is transported across cells during the transport experiment such that a concentration gradient was always present. For the “sink” condition experiments, the entire receiver volume was replaced at each time interval and a 100 µL aliquot was taken from the receiver volume for scintillation counting. A 100 µL sample was taken from the donor chamber at 3 h in order to calculate the mass balance of radioactivity to determine if adsorption to the cell culture transport apparatus had occurred. Each sample was placed in 0.9 mL of scintillation fluor (Cytoscint ES, ICN, Cosa Mesa, CA, USA) and read on a Beckman LS 6500 (Palo Alto, CA, USA) scintillation counter for ^3H activity. For berberine and berbamine analysis, 100 µL aliquot was assayed by HPLC.
(§1) The apparent permeability (Papp) was calculated using the following equation [40]: Papp=dQ/dt×1/A×C0
Where A is the surface area of the monolayer (4.71 cm^2) and C0 is the initial concentration of radiolabeled probe substrate in the donor compartment. dQ/dt is the slope of the steady-state rate constant. The efflux ratio was determined by dividing the Papp in the B to A direction by the Papp in the A to B direction: Efflux ratio=PappB to A/PappA to B
A Waters 2690 separations module with a Model 996 photodiode array detector with the Millennium 32 Chromatograph Manager version 3.0 software (Waters Corporation, Milford, MA, USA) was used for HPLC analysis. […] All the standards and samples were filtered (0.2 µm) prior to injection. Ten µL was injected onto a 250 × 4.6 mm i.d., […], Zorbax Eclipse X DB-C18 Column (Agilent Technologies, Palo Alto, CA, USA) with a 3.9 × 20 mm i.d. Symmetry® C18 guard column, with an isocratic mobile phase of 32:68 acetonitrile:buffer. The buffer consisted of 30 mM ammonium acetate and 14 mM TEA and was adjusted to pH 4.85 with acetic acid. A flow rate of 1 mL/min and UV absorption at 254 nm was used for analysis. The retention time of berberine and berbamine was 7.84 min and 3.03 min, respectively. The cumulative amount of transport was determined using the corresponding peak area for berberine or berbamine. The cumulative amount of berberine or berbamine transported across the cell membrane was evaluated as a functionof time. The Papp was calculated by the following equation: […]

MDCKII-MDR1 cells = experiment: MTT cytotoxicity assay in MDCKII-MDR1 cells; type: cell-based, Canine; settings: 4 hours exposure
Source text: We initiated cytotoxicity experiments with the Caco-2, MDCKII-MDR1 and MDCKII-wild type cells on Day 7 (Caco-2) and Day 4 (MDCKII-MDR1 and MDCKII-wild type) after the initial plating of the cells at 2.5 × 10^3 cells/well in 48-well plates (Becton Dickinson, Franklin Lakes, NJ, USA). See details of preparation for the cytotoxicity experiments in Supplementary Material.
We initiated cytotoxicity experiments with the Caco-2, MDCKII-MDR1 and MDCKII-wild type cells on Day 7 (Caco-2) and Day 4 (MDCKII-MDR1 and MDCKII-wild type) after the initial plating of the cells at 2.5x10^3 cells/well in 48-well plates (Becton Dickinson, Franklin Lakes, NJ, USA). Stock solutions of 10 mM berberine or berbamine were prepared by dissolving the compounds in DMSO (berberine) or distilled water (berbamine). […] The final concentration of DMSO was 0.003% (v/v), 0.03% (v/v), 0.3% (v/v), 1% (v/v), 1.5% (v/v), and 3% (v/v) DMSO/culture medium for 0.3 μM, 3 μM, 30 μM, 100 μM, ,150 μM, and 300 μM, respectively. The final concentration of ethanol was 0.15% (v/v) ethanol/culture medium. Ketoconazole (75 µM) was used as a positive control and no treatment (medium alone) was used as a negative control for each experiment.
The LDH enzymatic activities were assayed using the method of Mitchell et al.(1). […] Enzyme leakage into the medium was expressed as the percentage of total cellular LDH. The MTT (3-(4,5-dimethythiazole-2yl)-2,5-diphenyl tetrazolium bromide) reduction assay was done according to Mosmann (2). This assay was conducted immediately with the same cells used in the LDH study. The results were expressed as the percentage of negative controls.

P-glycoprotein = P-glycoprotein (Homo sapiens, UniProt P08183); experiment: Effect on 3H-CsA and 3H-digoxin transport in Caco-2 cells; settings: for Papp (B to A) of 3H-CsA / Papp (B to A) of 3H-digoxin: Caco-2; for Papp (B to A) of 3H-CsA: 0.5 µM 3H-CsA
Sequence of P-glycoprotein (P08183 whole entry): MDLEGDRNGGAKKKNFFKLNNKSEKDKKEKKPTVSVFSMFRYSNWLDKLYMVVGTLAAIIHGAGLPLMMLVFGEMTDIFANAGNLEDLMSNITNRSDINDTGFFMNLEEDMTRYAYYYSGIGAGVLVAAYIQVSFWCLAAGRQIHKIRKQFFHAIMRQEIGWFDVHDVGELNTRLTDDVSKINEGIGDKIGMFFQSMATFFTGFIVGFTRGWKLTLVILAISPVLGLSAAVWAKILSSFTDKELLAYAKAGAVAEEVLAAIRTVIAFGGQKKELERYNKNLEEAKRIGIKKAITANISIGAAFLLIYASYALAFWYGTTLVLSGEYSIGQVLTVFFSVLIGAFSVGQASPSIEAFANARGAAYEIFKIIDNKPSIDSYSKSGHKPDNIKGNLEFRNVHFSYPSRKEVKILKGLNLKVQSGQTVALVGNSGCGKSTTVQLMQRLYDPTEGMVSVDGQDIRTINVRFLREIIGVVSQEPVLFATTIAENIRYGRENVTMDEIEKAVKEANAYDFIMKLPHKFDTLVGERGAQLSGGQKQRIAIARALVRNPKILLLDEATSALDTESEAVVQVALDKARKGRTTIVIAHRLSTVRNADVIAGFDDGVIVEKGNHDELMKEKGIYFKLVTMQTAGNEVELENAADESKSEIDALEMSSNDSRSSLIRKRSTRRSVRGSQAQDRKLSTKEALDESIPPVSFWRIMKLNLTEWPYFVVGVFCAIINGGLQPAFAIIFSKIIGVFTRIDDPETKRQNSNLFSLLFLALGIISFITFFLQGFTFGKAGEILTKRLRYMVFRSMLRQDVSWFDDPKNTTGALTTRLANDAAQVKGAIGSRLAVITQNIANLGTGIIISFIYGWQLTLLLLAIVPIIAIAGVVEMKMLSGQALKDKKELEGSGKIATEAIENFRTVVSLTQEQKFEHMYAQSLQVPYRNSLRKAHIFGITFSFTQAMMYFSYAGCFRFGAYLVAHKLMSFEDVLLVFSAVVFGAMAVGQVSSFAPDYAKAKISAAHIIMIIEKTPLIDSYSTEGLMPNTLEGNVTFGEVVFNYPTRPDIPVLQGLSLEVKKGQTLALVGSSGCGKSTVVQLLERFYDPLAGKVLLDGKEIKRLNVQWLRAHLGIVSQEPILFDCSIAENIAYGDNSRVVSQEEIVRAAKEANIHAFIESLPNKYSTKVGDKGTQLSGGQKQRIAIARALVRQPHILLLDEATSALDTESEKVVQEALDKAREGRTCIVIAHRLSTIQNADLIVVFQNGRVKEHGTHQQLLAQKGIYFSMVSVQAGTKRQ

[1] = biological target: T1, P-glycoprotein (MDCKII-MDR1 cells) (Homo sapiens, UniProt P08183); experiment: Effect on 3H-CsA and 3H-digoxin transport in MDCKII-MDR1 cells; settings: for Papp (B to A) of 3H-CsA: 0.5 µM 3H-CsA; for Papp (B to A) of 3H-digoxin: 0.5 µM 3H-digoxin
T1 sequence (P08183 whole entry): as above

[2] = biological target: T1, P-glycoprotein (MDCKII-MDR1 cells); experiment: Transepithelial transport of berberine and berbamine across MDCKII-MDR1 cells; type: in vitro ADME; set-up: expressed in transfected cells; host or cells: MDCKII-MDR1 (Madin-Darby canine kidney II cells overexpressing MDR1); settings: 100 µM
Procedure: Transport of ^3H-CsA and ^3H-digoxin (0.5 µM and 1.0 µCi), MDR1 substrates, were performed using transport buffer consisting of HBSS with 10 mM HEPES and 25 mM D-glucose at a pH of 6.8 for the apical (A) compartment and 7.4 for the basolateral (B) compartment. Experiments were performed at 37°C, 5% CO2, and 95% relative humidity. Cells in the Transwell® inserts were washed 3 times with a transport buffer and allowed to equilibrate for 30 min prior to the addition of test compounds. […] To evaluate the efflux mechanism involved with berberine and berbamine, 100 µM of berberine and berbamine were placed in the donor chamber and 100 µL samples were collected in the receiver chamber at 0, 0.5, 1.0, 1.5, 2.0, 2.5, and 3.0 h and analyzed by HPLC. Each experiment was performed in duplicate and repeated for each condition tested. For experiments performed in “non-sink” conditions, 100 µL aliquots were taken from the donor and receiver chambers at the beginning and from the receiver chamber at 0.5, 1.0, 1.5, 2.0, 2.5, and 3.0 h. An equal volume of 100 µL was replaced in the chamber at each sample time point. […] A 100 µL sample was taken from the donor chamber at 3 h in order to calculate the mass balance of radioactivity to determine if adsorption to the cell culture transport apparatus had occurred. Each sample was placed in 0.9 mL of scintillation fluor (Cytoscint ES, ICN, Cosa Mesa, CA, USA) and read on a Beckman LS 6500 (Palo Alto, CA, USA) scintillation counter for ^3H activity. […]
as §1
Where A is the surface area of the monolayer (4.71 cm^2) and C0 is the initial concentration of radiolabeled probe substrate in the donor compartment. dQ/dt is the slope of the steady-state rate constant. The efflux ratio was determined by dividing the Papp in the B to A direction by the Papp in the A to B direction: Efflux ratio=PappB to A/PappA to B […]

## COc1ccc2cc3[n+](cc2c1OC)CCc1cc2c(cc1-3)OCO2.[Cl-] [Berberine, Berberine chloride]
Caco-2 cells
  Papp A to B direction: 2.35 ×10⁻⁶ cm/s
  Papp B to A direction: 10.4 ×10⁻⁶ cm/s
  fold increase of Papp B to A compared with A to B: ~4 fold
  transport in the A to B direction: 0.18 nmol/min
  transport in the B to A direction: 1.45 nmol/min
MDCKII-MDR1 cells; 0.03 µM
  MTT assay: □ (%MTT reduction is not significantly decreased compared with the negative control)
MDCKII-MDR1 cells; 3.0 µM
  MTT assay: □ (%MTT reduction is not significantly decreased compared with the negative control)
MDCKII-MDR1 cells; 100 µM
  MTT assay: □ (%MTT reduction is not significantly decreased compared with the negative control)
MDCKII-MDR1 cells; 150 µM
  MTT assay: □ (%MTT reduction is not significantly decreased compared with the negative control)
MDCKII-MDR1 cells; 300 µM
  MTT assay: □ (%MTT reduction is not significantly decreased compared with the negative control)
P-glycoprotein; 10 µM compound
  Papp (B to A) of 3H-CsA: 1.79 ± 0.16 x 10^−6 cm/s
P-glycoprotein; 10 µM compound, 0.5 µM 3H-digoxin
  Papp (B to A) of 3H-digoxin: 2.37 ± 0.26 x 10^−6 cm/s
P-glycoprotein; 30 µM compound
  Papp (B to A) of 3H-CsA: 1.52 ± 0.14 x 10^−6 cm/s
P-glycoprotein; 30 µM compound, 0.5 µM 3H-digoxin
  Papp (B to A) of 3H-digoxin: 2.26 ± 0.29 x 10^−6 cm/s
P-glycoprotein; 100 µM compound
  Papp (B to A) of 3H-CsA: 1.60 ± 0.45 x 10^−6 cm/s
P-glycoprotein; 100 µM compound, 0.5 µM 3H-digoxin
  Papp (B to A) of 3H-digoxin: 2.93 ± 0.07 x 10^−6 cm/s
P-glycoprotein; Caco-2 cells
  lowest concentration with significant decrease of B to A transport of 0.5 µM 3H-CsA: 10 µM
P-glycoprotein; Caco-2 cells, up to 30 μM, 0.5 µM 3H-digoxin
  effect on digoxin transport: no significant effects
[1]; 10 µM compound
  Papp (B to A) of 3H-CsA: 5.34 ± 1.56 x 10^−6 cm/s
  Papp (B to A) of 3H-digoxin: 1.56 ± 0.43 x 10^−6 cm/s
[1]; 30 µM compound
  Papp (B to A) of 3H-CsA: 5.17 ± 0.92 x 10^−6 cm/s
  Papp (B to A) of 3H-digoxin: 1.57 ± 0.81 x 10^−6 cm/s
[2]
  Papp A to B direction: 1.3 ×10⁻⁶ cm/s
  Papp B to A direction: 15.6 ×10⁻⁶ cm/s
  fold increase of Papp B to A compared with A to B: approximately 12 fold

Source: publication PMC10830684, “Effect of Oregon grape root extracts on P-glycoprotein mediated transport in in vitro cell lines” (Journal of Pharmacy & Pharmaceutical Sciences, 2024)
